The source of these data is ChEMBL document CHEMBL1201862, “PubChem BioAssay data set” (2004).

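Five compound concentrations were applied to cells in 96-well plates for 48 hours; endpoints were derived by simple linear interpolation of the resulting dose-response curve. GI50 = concentration required for 50% inhibition of growth.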 The source made the active and inactive calls. No stated cut-off is given here; in the data, active = GI50 up to about 1.1 µM and inactive = higher.

Some test systems named below: OVCAR-8; COLO 205; OVCAR-3; MDA-MB-435; HT-29; U-251; MDA-MB-231; SK-MEL-2; SK-MEL-28; CAKI-1; A498; HL-60; DU-145; NCI-H522; SR; HCT-15; UACC-62; SF-539; EKVX; TK-10.
Assay in all cases: growth of human tumour cells (NCI), 48 h

As for `C[C@H]1S[C@@H](c2ccc(Cl)cc2Cl)N(NC(=O)c2ccncc2)C1=O`, the GI50 in the test on OVCAR-8 is > 100 µM (inactive); with COLO 205 it was 70.6 µM (inactive); in the test with OVCAR-3 it was 35.6 µM (inactive); in the test on MDA-MB-435, 43.6 µM (inactive); in the test on HT-29, > 100 µM (inactive); with U-251, 64 µM (inactive). The GI50 with MDA-MB-231 is 49.2 µM (inactive); with SK-MEL-2, 27.3 µM (inactive); with SK-MEL-28, 45.2 µM (inactive); in the test with CAKI-1 it was 56.2 µM (inactive); in the test with A498, > 100 µM (inactive); in the test on HL-60, 98.4 µM (inactive). Further, the GI50 with DU-145 is 71.3 µM (inactive); in the test on NCI-H522, 37.8 µM (inactive); in the test with SR, 79.4 µM (inactive); in the test with HCT-15, 47.9 µM; in the test on UACC-62, 29.6 µM (inactive).
Regarding `Nc1ccccc1C(=O)N/N=C1\C(=O)Nc2ccccc21`, the GI50 in the test with SF-539, with OVCAR-8, in the test with EKVX, in the test on COLO 205, in the test with OVCAR-3 and in the test with MDA-MB-435 was > 100 µM (inactive) in each case. Moreover, the GI50 in the test on HT-29 was > 100 µM (inactive); with U-251 it was 40.2 µM (inactive); in the test with MDA-MB-231, 19.6 µM (inactive); in the test with SK-MEL-2, > 100 µM (inactive); with CAKI-1 it was > 100 µM (inactive); with A498, 33.2 µM (inactive). The GI50 in the test with DU-145 was > 100 µM (inactive); in the test with NCI-H522, 89.9 µM (inactive); in the test on SR, > 100 µM (inactive); with TK-10 it was 32.5 µM (inactive); in the test with HCT-15, above 100 µM; in the test on UACC-62, > 100 µM (inactive).
As to `COc1cc(/C=C2\N=C(c3ccccc3)N(C3Nc4cc5c(cc4S3)NC(N3C(=O)/C(=C/c4cc(OC)c(OC)c(OC)c4)N=C3c3ccccc3)S5)C2=O)cc(OC)c1OC` (stereo not drawn), the GI50 in the test on SF-539 is 42 µM (inactive); in the test on OVCAR-8, 83.9 µM (inactive); in the test with EKVX, 44.1 µM (inactive); in the test with OVCAR-3, 61 µM (inactive); with MDA-MB-435 it was > 100 µM (inactive); in the test with HT-29, 74.6 µM (inactive). In addition, the GI50 with U-251 is 45.2 µM (inactive); in the test on MDA-MB-231, > 100 µM (inactive); with SK-MEL-2, > 100 µM (inactive); in the test on SK-MEL-28, > 100 µM (inactive); with CAKI-1 it was 39.9 µM (inactive); in the test on A498, 68.4 µM (inactive). The GI50 in the test with HL-60 is 65.9 µM (inactive); in the test on DU-145 it was 94.8 µM (inactive); in the test on NCI-H522, 60.3 µM (inactive); with SR it was 20.5 µM (inactive); in the test with TK-10, > 100 µM (inactive); with HCT-15, 57.5 µM.
Regarding `COc1ccccc1N1C(=O)/C(=C\c2cc(OC)c(OC)c(OC)c2)SC1c1ccccc1` (stereo not drawn), the GI50 was 99.3 µM (inactive) in the test on SF-539; 42 µM (inactive) in the test with OVCAR-8; 13.2 µM (inactive) in the test on EKVX; 24.1 µM (inactive) in the test with COLO 205; 37.5 µM (inactive) in the test on OVCAR-3; 14.9 µM (inactive) in the test on MDA-MB-435. Also, the GI50 was 45.3 µM (inactive) with HT-29; 24.4 µM (inactive) with U-251; 44.8 µM (inactive) with MDA-MB-231; 68.4 µM (inactive) with SK-MEL-2; 45.4 µM (inactive) with SK-MEL-28; > 100 µM (inactive) with CAKI-1. Further, the GI50 is > 100 µM (inactive) in the test with A498; 26.2 µM (inactive) in the test on HL-60; > 100 µM (inactive) in the test on DU-145; 13.7 µM (inactive) in the test with NCI-H522; 13.3 µM (inactive) in the test on SR; 53.3 µM (inactive) in the test on TK-10. The GI50 in the test with HCT-15 is 44.7 µM; with UACC-62, 36.1 µM (inactive).
